Assay results from publication PMC10755736, “Modulating Liquid–Liquid Phase Separation of Nck Adaptor Protein against Enteropathogenic Escherichia coli Infection” (ACS Central Science, 2023).
“Also recorded” adds a separate entry of the source. Non-standard residues stand in square brackets, D forms with d. Residues, ends and D or L forms follow the SMILES beside them. *: point of attachment. Biotin = O=C1N[C@H]2[C@H](CS[C@H]2CCCCC(=O)*)N1; Benzoyl(4-SO2F) = O=C(c1ccc(S(=O)(=O)F)cc1)*; pY = N[C@@H](Cc1ccc(OP(=O)(O)O)cc1)C(=O)O; Dap = NC[C@H](N)C(=O)O

Columns and labels:
Assay type in all cases: binding
Nck-SH2 [1] = assay: Covalent reaction of p1 with wild-type Nck-SH2; details: cell lysate in vitro and in the cytosol
Description: Figure 5 Peptide p1 reacts with Lys 331. (a) MS/MS analysis of the conjugated site between p1 peptide and Nck-SH2 at Lys331. The corresponding mass data are shown in Figure S6 in the Supporting Information. […] Purified recombinant proteins were incubated with peptides in PBS buffer at 37 °C for 1 min (left) or 10 min (right). Molecular weight markers are shown in the middle. Red arrows indicate the covalent peptide–protein complex. […]
ether and purified by reverse-phase HPLC on a C18 column using acetonitrile/H2O (with 0.1% TFA) gradient on a reversed-phase C18 column, confirmed by MALDI-TOF MS analysis (Bruker, USA).
Pure peptides were lyophilized.
Crosslinking of Peptides with Nck in vitro
Purified peptides were incubated with the recombinantly expressed Nck protein (10 μM) in PBS buffer at 37 °C. After incubation, 5´ loading buffer was added into the solution and heated at 100 °C for 10 min. […]
(§1) The reaction mixture of Nck and p1 were digested with trypsin. Digested peptides were analyzed with an in-line EASY-spray source and nano-LC UltiMate 3000 high-performance liquid chromatography system (Thermo Fisher, USA) interfaced with an Elite mass spectrometer (Thermo Fisher, USA). The eluted peptides were detected by the Elite mass spectrometer, which was operated in data-dependent mode with one full MS scan at R = 60,000 (m/z = 200) mass, followed by MS/MS scans. […]

Nck-SH2 [2] = assay: Mass spectrometric analysis of Nck-p1 conjugate
Description: We next identified the residues in Nck-SH2 that are involved in the reaction with p1 by mass spectrometry. […] The Nck–p1 conjugate was digested with trypsin, and peptide fragments were analyzed with an in-line EASY-spray source and nano-LC UltiMate 3000 HPLC system interfaced with an Elite mass spectrometer, operated in the data-dependent acquisition (DDA) mode with one full MS scan at R = 60,000 (m/z = 200) mass followed by HCD MS/MS scans. […] The fragmentation spectral analysis of [EEHIpYXEVAAD(α)] + [HFKVQLK(β)] extracted by pLabel v2.4.3.0 (Figure 5a and Figure S6 in the Supporting Information)[38],[39] confirmed the ligand-directed conjugation of Nck-SH2 protein with p1 peptide. The underlined lysine residue in the β-chain sequence indicated the cross-linked site on the predicted Nck Lys331 residue. Next, we mutated Nck Lys331 to Ala, expressed and purified the Nck-SH2K331A mutant. […]
as §1

Nck = biological target: T1, Nck (Homo sapiens, UniProt P16333); assay: Crosslinking of peptides with recombinant Nck in vitro (SDS-PAGE, Western blotting); details: PBS, 1 h
T1 construct: GST (followed by PreScission/HRV 3C site) (N, cleaved yes); made in house; host or cells: E. coli BL21(DE3)
From the text: Although peptide Y474 can block Nck-mediated LLPS, the requirement of a high concentration of the blocker peptide is hard to achieve inside the cell. […] The side chains of the Nck lysine residues are pointing toward the residues at pY+1 and pY+2 positions with distances of only 4 to 6 Å. This unique feature gives us an opportunity to design covalent blockers for Nck-SH2 by installing electrophiles at the pY+1 or pY+2 positions to enable a proximal conjugation reaction with one of the lysine residues. Covalent blockage through the characteristic lysine residues will maximize the specificity of the inhibitor toward Nck-SH2. As sulfonyl fluoride has been reported to react with proteinaceous nucleophiles such as lysine, histidine, or cysteine,[34] we installed a sulfonyl fluoride group on the side chain of diaminopropionic acid, giving an unnatural amino acid X1 at different positions such as pY+1 (Asp6) and pY+3 (Val8) of peptide EEHIpYDEVAAD. Besides the amino acid X1, we also included α-chloroacetyl-carrying amino acids X2 and X3, which may also react with proteineous nucleophiles. Electrophile-containing reactive peptides p1 to p11 were synthesized with a biotin tag at the N-termini (Figure 4b). After the reactive peptides were incubated with recombinant Nck protein at a 5:1 ratio at 37 °C in PBS for 1 h, the formation of covalently linked Nck–peptide conjugates could be observed, shown as new protein bands with molecular weights higher than that of Nck based on denatured SDS-PAGE and Western blotting analysis against biotin (Figure 4c). […] At 37 °C in PBS buffer, the 1:1 reaction efficiency reached 50% in 2 min (Figure S4 in the Supporting Information).
Figure 4 Covalently reactive peptides designed based on a Tir peptide. (a) Crystal structure of Nck-SH2 in complex with a peptide EEHIpYDEVAAD from EPEC protein Tir (PDB: 2CI9). (b) List of synthetic reactive peptides. (c) Unnatural amino acids in the peptides. (d) SDS-PAGE (top) and Western blotting (bottom) analyses showing covalent conjugation of the peptides with Nck. […]

## CC[C@H](C)[C@H](NC(=O)[C@H](Cc1c[nH]cn1)NC(=O)[C@H](CCC(=O)O)NC(=O)[C@H](CCC(=O)O)NC(=O)CCCC[C@@H]1SC[C@@H]2NC(=O)N[C@@H]21)C(=O)N[C@@H](Cc1ccc(OP(=O)(O)O)cc1)C(=O)N[C@@H](CNC(=O)c1ccc(S(=O)(=O)F)cc1)C(=O)N[C@@H](CCC(=O)O)C(=O)N[C@H](C(=O)N[C@@H](C)C(=O)N[C@@H](C)C(=O)N[C@@H](CC(=O)O)C(N)=O)C(C)C [p1] (Biotin-EEHI[pY][Dap](Benzoyl(4-SO2F))EVAAD-NH2; N-terminus and C-terminus assumed)
Nck-SH2 [1]
  reactivity with Nck-SH2: high reactivity with Nck-SH2
Nck-SH2 [2]; Nck and Nck-p1 conjugate
  conjugation stoichiometry by LC-MS: only one p1 was conjugated with Nck
Nck-SH2 [2]; trypsin digest, MS/MS, K331A mutation
  reaction site on Nck-SH2: Lys331
Nck; p1:Nck 5:1, 37 °C, SDS-PAGE
  number of Nck–peptide conjugate bands: only one Nck–peptide conjugate band
Nck; peptide:Nck 5:1, 37 °C, SDS-PAGE and anti-biotin Western blotting
  reactivity with Nck: highest cross-linking efficiency with Nck; also recorded: noticeable reactivity
